Data reported in ChEMBL document CHEMBL5331067, “Disubstituted pyrimidine-5-carboxamide derivatives as novel HIV-1 NNRTIs: Crystallographic overlay-based molecular design, synthesis, and biological evaluation” (Eur J Med Chem, 2023).

Tests used:
[1] = Cytotoxicity against human MT4 cells assessed as cell growth inhibition incubated for 5 days by MTT assay; assay type: toxicity, cell-based; conditions: time 5 day
[2] = system: Human immunodeficiency virus 1; assay: Antiviral activity against HIV-1 IIIB infected in human MT4 cells assessed as reduction in virus induced cytopathic effect incubated for 5 days by MTT assay; assay type: functional, organism-based; conditions: Human immunodeficiency virus 1, IIIB, MT4, 120 h
[3] = system: Human immunodeficiency virus 1; assay: Antiviral activity against HIV-1 RES056 infected in human MT4 cells assessed as reduction in virus induced cytopathic effect incubated for 5 days by MTT assay; assay type: functional, organism-based; conditions: Human immunodeficiency virus 1, RES056, MT4, 120 h
[4] = Selectivity index, ratio of CC50 for cytotoxicity against human MT4 cells assessed as reduction in cell viability to EC50 for antiviral activity against HIV-1 IIIB infected in human MT4 cells assessed as reduction in virus induced cytopathic effect; assay type: toxicity, cell-based; conditions: read-out: Ratio CC50/EC50
[5] = system: Human immunodeficiency virus 1; assay: Antiviral activity against NNRTI-resistant HIV-1 harboring E138K mutant infected in human MT4 cells assessed as virus-induced cytopathicity incubated for 5 days by MTT assay; assay type: functional, organism-based; conditions: Human immunodeficiency virus 1, MT4, 120 h

Structure (SMILES)	CC50 at 120 h [1] [µM]	EC50 [2] [µM]	EC50 [3] [µM]	selectivity ratio [4]	EC50 [5] [µM]
Cc1cc(C#N)cc(C)c1Oc1nc(Nc2ccc(CN3CCN(S(N)(=O)=O)CC3)cc2)ncc1C(N)=O	173	1.55	> 173	112	–
Cc1cc(C#N)cc(C)c1Oc1nc(Nc2ccc(CN3CCNCC3)cc2)ncc1C(N)=O	> 273	13.4	> 273	> 20	–
Cc1ccnc2c1NC(=O)c1cccnc1N2C1CC1 [NEVIRAPINE]	> 15	0.151	> 15	–	0.168
Cc1cc(C#N)cc(C)c1Oc1nc(Nc2ccc(CN3CCN(S(C)(=O)=O)CC3)cc2)ncc1C(N)=O	> 233	1.77	> 233	> 132	–
Cc1cc(C#N)cc(C)c1Oc1nc(Nc2ccc(C#N)cc2)nc(N)c1Br [ETRAVIRINE]	> 4.6	–	0.061	–	0.01
Cc1cc(C#N)cc(C)c1Oc1nc(NC2CCN(c3cccc(C(N)=O)c3)CC2)ncc1C(N)=O	> 257	43.9	> 257	> 6	–
O=C1Nc2ccc(Cl)cc2[C@@](C#CC2CC2)(C(F)(F)F)O1 [EFAVIRENZ]	> 6.35	–	–	–	–
Cc1cc(C#N)cc(C)c1Oc1nc(Nc2ccc(C#N)nc2)ncc1C(N)=O	27.9	0.128	> 27.9	218	–
Cc1cc(C#N)cc(C)c1Oc1nc(NC2CCN(c3cccc(C#N)c3)CC2)ncc1C(N)=O	111	0.276	48.1	402	–
